Measured values taken from patent US20040029910A1, “Protoberberine derivatives which inhibit activity of the mitogen-activated protein kinase” (priority 2000, published 2004).

Experiments:
[1] = system: knock-out mutant of wis1 (JM544); experiment: Growth (cell number) of wis1 knock-out mutant; format: cell-based, Schizosaccharomyces pombe; conditions: for inhibition of the activity of Wis1 kinase, concluded from effects on knock-out mutants: conclusion from growth of knock-out mutants; for cell number: Table 5, wis1 knock-out, miconazole 3 ug/mL
Description: To investigate the effect of protoberberine derivatives on the growth of cells, the cells of each strain were cultured in rich medium YE^AU to exponential phase(5×10^7 cells/mL). […]

[2] = target: T1, Wis1 kinase (Schizosaccharomyces pombe, UniProt P33886); experiment: Wis1 kinase activity and autophosphorylation ([γ-32P]ATP, SDS-PAGE, FIG. 2); format: biochemical; conditions: purified GST-Wis1, kinase reaction 30° C. 30 minutes, autophosphorylation also measured
T1 construct: The genes wis1 and spc1 were cloned into the pRep1 vector containing nmt1 promoter; made in house; host or cells: Schizosaccharomyces pombe KGY246 (pRep1 vector, nmt1 promoter)
T1 sequence (P33886 1-605): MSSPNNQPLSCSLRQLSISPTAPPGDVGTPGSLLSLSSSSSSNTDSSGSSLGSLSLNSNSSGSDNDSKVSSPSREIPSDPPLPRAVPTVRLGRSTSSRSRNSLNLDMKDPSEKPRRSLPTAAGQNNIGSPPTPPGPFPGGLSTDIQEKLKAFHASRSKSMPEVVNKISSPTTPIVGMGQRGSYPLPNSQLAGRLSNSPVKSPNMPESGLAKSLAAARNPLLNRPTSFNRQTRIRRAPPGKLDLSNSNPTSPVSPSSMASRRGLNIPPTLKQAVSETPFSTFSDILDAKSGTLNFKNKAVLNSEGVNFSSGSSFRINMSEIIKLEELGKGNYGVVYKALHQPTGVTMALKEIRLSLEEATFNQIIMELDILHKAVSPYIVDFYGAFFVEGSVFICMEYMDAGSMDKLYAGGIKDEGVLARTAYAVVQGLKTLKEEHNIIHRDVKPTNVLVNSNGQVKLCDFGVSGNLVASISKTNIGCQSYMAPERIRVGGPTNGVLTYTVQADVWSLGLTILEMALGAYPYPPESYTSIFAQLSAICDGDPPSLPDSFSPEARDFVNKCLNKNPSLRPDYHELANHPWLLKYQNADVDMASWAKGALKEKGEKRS
Description: The genes wis1 and spc1 were cloned into the pRep1 vector containing nmt1 promoter of which expression was inhibited by thiamin in the medium and able to tag GST. The KGY246 cells, wild type Schizosaccharomyces pombe cells were transformed with this plasmid. The expression of Wis1 and Spc1 kinase tagged with GST was induced by the cultivation of the transformed cells in MM^AU medium containing 0.4 mM thiamin followed by cultivation to exponential phase(5×10^6 cells) for about 20 hours in 100 mL of MM^AU medium in which thiamin was withdrawn. After osmotic shock(0.6M KCl) and oxidative stress were given to the cells expressing Wis1 and Spc1 tagged with GST for 25 minutes, cells were recovered at 4° C., washed with ice-cold PBS/NaF(50 mM)/NaN3(1 mM) buffer and HB buffer(25 mM HEPES, pH 7.5, 60 mM β-glycerophosphate, 15 mM EGTA, 0.1 mM Na vanadate, 0.1% triton and hydrolyzed using glass bead and bead beater purchased from Sigma. The supernatant of hydrolyzed cells was incubated with 100 mM NaCl for salting-out to remove unnecessary proteins. After the supernatant was incubated with 0.045 g/ml GST beads for 1.5 hours, proteins not bound to GST beads were removed. Purified Wis1 and Spc1 kinases were separated on 7% SDS-PAGE and the degree of purification was confirmed by western blotting using GST antibody.
Before Wis1 and Spc1 kinases purified in example 4 were analyzed, they were pre-incubated in analyzing buffer of kinase (50 mM Tris-Cl pH7.4, 20 mM MgCl2, 5 mM EGTA, 2 mM Na vanadate, 1 mM DTT). The kinase reaction was performed at 30° C. for 30 minutes in the presence of 1 mg/ml myelin basic protein(MBP), 1 mM ATP and 20 uCi of [γ-^32p]ATP and then terminated by adding SDS sample buffer and heating at 90° C. for 5 minutes. The reaction mixtures were separated on SDS-polyacrylamide gel electrophoresis. After fixation with 10% acetic acid: 10% methanol and drying, the gel was exposed on X-ray film. When Wis1 is activated by stimulus, it also activates autophosphorylation. Therefore, the degree of Wis1 autophosphorylation was also measured.

[3] = system: knock-out mutant of spc1 (KS1366); experiment: Growth (cell number) of spc1 knock-out mutant; format: cell-based, Schizosaccharomyces pombe; conditions: Table 6, spc1 knock-out, miconazole 3 ug/mL
Description: To investigate the effect of protoberberine derivatives on the growth of cells, the cells of each strain were cultured in rich medium YE^AU to exponential phase(5×10^7 cells/mL). […] Then cell number was measured every 3 hours.

[4] = system: knock-out mutant of byr2 in Ras-Byr2 pathway (SPSU); experiment: Growth (cell number) of byr2 knock-out mutant; format: cell-based, Schizosaccharomyces pombe; conditions: Table 3, byr2 knock-out, miconazole 3 ug/mL
Description: (§1) To investigate the effect of protoberberine derivatives on the growth of cells, the cells of each strain were cultured in rich medium YE^AU to exponential phase(5×10^7 cells/mL). These cells were transferred to YE^AU medium and cultured for 12 hours. Then cell number was measured every 3 hours.

[5] = system: knock-out mutant of spm1 in Mhk1-Spm1 pathway (TZs69); experiment: Growth (cell number) of spm1 knock-out mutant; format: cell-based, Schizosaccharomyces pombe; conditions: Table 4, spm1 knock-out, miconazole 3 ug/mL
Description: as §1

| Structure (SMILES) | inhibition of the activity of Wis1 kinase, concluded from effects on knock-out mutants [1] | inhibition of Wis1 kinase activity (in words) [2] | further results |
| --- | --- | --- | --- |
| COc1ccc2c(Cc3ccc(C(C)C)cc3)c3[n+](cc2c1OC)CCc1cc2c(cc1-3)OCO2.[Cl-] [13-(4-i-propylbenzyl)berberine chloride] | inhibited | directly inhibited |  |
| COC(=O)c1ccc(Cc2c3[n+](cc4c(OC)c(OC)ccc24)CCc2cc4c(cc2-3)OCO4)cc1 [13-(4-methoxycarbonylbenzyl)berberine chloride] | inhibited | directly inhibited |  |
| COc1ccc2c(Cc3c(F)cccc3Cl)c3[n+](cc2c1OC)CCc1cc2c(cc1-3)OCO2 [13-(2-chloro-6-fluorobenzyl)berberine chloride] | inhibited | directly inhibited |  |
| COc1ccc2c(Cc3ccc(Cl)cc3)c3[n+](cc2c1OC)CCc1cc2c(cc1-3)OCO2.[I-] [13-(4-chlorobenzyl)berberine iodide] | inhibited | directly inhibited |  |
| COc1ccc2c(Cc3ccc(C)c([N+](=O)[O-])c3)c3[n+](cc2c1OC)CCc1cc2c(cc1-3)OCO2.[Cl-] [13-(4-methyl-3-nitrobenzyl)berberine chloride] | inhibited | directly inhibited |  |
| COc1ccc2c(Cc3ccc(F)cc3C(F)(F)F)c3[n+](cc2c1OC)CCc1cc2c(cc1-3)OCO2.[Cl-] [13-(4-fluoro-2-trifluoromethylbenzyl)berberine chloride] | inhibited | directly inhibited |  |
| COc1ccc2c(Cc3c(F)c(F)c(C(F)(F)F)c(F)c3F)c3[n+](cc2c1OC)CCc1cc2c(cc1-3)OCO2.[Cl-] [13-(2,3,5,6-tetrafluoro-4-trifluoromethylbenzyl)berberine chloride] | inhibited | directly inhibited |  |
| COc1ccc2c(Cc3cccc(Cl)c3Cl)c3[n+](cc2c1OC)CCc1cc2c(cc1-3)OCO2.[Cl-] [13-(2,3-dichlorobenzyl)berberine chloride] | inhibited | directly inhibited |  |
| COc1ccc2c(Cc3ccccc3)c3[n+](cc2c1OC)CCc1cc2c(cc1-3)OCO2.[I-] [13-benzylberberine iodide] | inhibited | directly inhibited |  |
| Clc1ccc(COC(Cn2ccnc2)c2ccc(Cl)cc2Cl)c(Cl)c1 (stereo not shown) [miconazole, reference compound] |  |  | cell number ([3]; time 12): 15; cell number ([3]; time 15): 9; cell number ([3]; time 18): 12; cell number ([3]; time 21): 18; cell number ([3]; time 24): 17; cell number ([4]; time 12): 32; cell number ([4]; time 15): 19; cell number ([4]; time 18): 31; cell number ([4]; time 21): 30; cell number ([4]; time 24): 27; cell number ([1]; time 12): 35; cell number ([1]; time 15): 37; cell number ([1]; time 18): 25; cell number ([1]; time 21): 19; cell number ([1]; time 24): 12; cell number ([5]; time 12): 28; cell number ([5]; time 15): 27; cell number ([5]; time 18): 23; cell number ([5]; time 21): 34; cell number ([5]; time 24): 26 |
| COc1ccc2c(Cc3ccc(OC(F)(F)F)cc3)c3[n+](cc2c1OC)CCc1cc2c(cc1-3)OCO2.[Cl-] [13-(4-trifluoromethoxybenzyl)berberine chloride] | inhibited | directly inhibited |  |
| COc1ccc2c(Cc3cccc(Br)c3)c3[n+](cc2c1OC)CCc1cc2c(cc1-3)OCO2 [13-(3-bromobenzyl)berberine iodide] | inhibited | directly inhibited |  |
| COc1ccc2c(Cc3cccc(C(F)(F)F)c3)c3[n+](cc2c1OC)CCc1cc2c(cc1-3)OCO2.[Cl-] [13-(3-trifluoromethylbenzyl)berberine chloride] | inhibited | directly inhibited |  |
| COc1ccc2c(Cc3c(F)c(F)c(F)c(F)c3F)c3[n+](cc2c1OC)CCc1cc2c(cc1-3)OCO2 [13-(2,3,4,5,6-pentafluorobenzyl)berberine chloride] | inhibited | directly inhibited |  |
| COc1ccc2c(Cc3ccc(C)cc3)c3[n+](cc2c1OC)CCc1cc2c(cc1-3)OCO2.[Cl-] [13-(4-methylbenzyl)berberine chloride] | inhibited | directly inhibited |  |
| COc1ccc2c(Cc3ccc(C)cc3C)c3[n+](cc2c1OC)CCc1cc2c(cc1-3)OCO2.[Cl-] [13-(2,4-dimethylbenzyl)berberine chloride] | inhibited | directly inhibited |  |
| COc1ccc(Cc2c3[n+](cc4c(OC)c(OC)ccc24)CCc2cc4c(cc2-3)OCO4)cc1 [13-(4-methoxybenzyl)berberine chloride] | inhibited | directly inhibited |  |
